Data taken from patent US5902812A, “Pharmaceutical piperazine compounds” (Xenova Limited, priority 1994, dated 1999).

Molecular target: PAI-1 (Homo sapiens, UniProt P05121)
Experiment: biochemical
Settings: for inhibition at 6.25 µM / inhibition at 12.5 µM / inhibition at 25 µM / inhibition at 50 µM / inhibition at 100 µM: read-out: Degree of inhibition in PAI chromogenic substrate assay
Method: In this assay, a compound is incubated with PAI-1 prior to addition to the tPA assay system. Inhibition of PAI-1 results in the production of plasmin from plasminogen. In turn, plasmin cleaves the chromogenic substrate S2251 (Kabi Vitrum) producing pNA (p-nitroaniline) which is detected spectrophotometrically at 405 nm (K. Nilsson et al, Fibrinolysis (1987) 1, 163-168).
Compounds of formula (A) were tested in a PAI chromogenic substrate assay. In the assay (K.Nilsson, Fibrinolysis (1987) 1, 163-168) each compound was incubated with PAI-1 prior to addition to the tPA assay system. […] In turn, the plasmin cleaved the chromogenic substrate S2251 (Kabi-Vitrum) producing pNA (p-nitroaniline) which was detected spectrophotometrically at 405 nm.

PAI-1, sequence (P05121 24-402): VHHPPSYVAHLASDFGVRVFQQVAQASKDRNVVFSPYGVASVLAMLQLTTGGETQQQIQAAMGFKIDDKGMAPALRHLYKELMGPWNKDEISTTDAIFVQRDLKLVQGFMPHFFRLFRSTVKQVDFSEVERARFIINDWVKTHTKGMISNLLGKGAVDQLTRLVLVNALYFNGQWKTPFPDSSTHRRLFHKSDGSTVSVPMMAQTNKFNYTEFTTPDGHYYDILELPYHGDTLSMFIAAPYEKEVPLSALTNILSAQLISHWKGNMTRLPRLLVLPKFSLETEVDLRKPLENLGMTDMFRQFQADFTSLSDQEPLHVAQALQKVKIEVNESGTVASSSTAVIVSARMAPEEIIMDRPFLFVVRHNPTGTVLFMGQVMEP

## CN(C)CCCOc1ccc(/C=c2\[nH]c(=O)/c(=C/c3ccccc3)[nH]c2=O)cc1 [Compound 1852, (3Z,6Z)-6-Benzylidene-3-(4-(3-dimethylaminopropoxy)benzylidene)-2,5-piperazinedione]
6.25 μM
  inhibition at 6.25 µM: 4%
12.5 μM
  inhibition at 12.5 µM: 67%
25 μM
  inhibition at 25 µM: 74%
50 μM
  inhibition at 50 µM: 71%
100 μM
  inhibition at 100 µM: 72%

## COc1ccc(/C=c2\[nH]c(=O)/c(=C/c3ccc(OC(=O)CC(C)(C)C)cc3)[nH]c2=O)cc1 [Compound 1885, (3Z,6Z)-3-(4-(3,3-dimethylbutanoyloxy)benzylidene)-6-(4-methoxybenzylidene)-2,5-piperazinedione]
6.25 μM
  inhibition at 6.25 µM: 0%
12.5 μM
  inhibition at 12.5 µM: 0%
25 μM
  inhibition at 25 µM: 2%
50 μM
  inhibition at 50 µM: 31%
100 μM
  inhibition at 100 µM: 54%

## CCCCCCC(=O)Oc1ccc(/C=c2\[nH]c(=O)/c(=C/c3ccc(OC)cc3)[nH]c2=O)cc1 [Compound 1887, (3Z,6Z)-3-(4-Heptanoyloxybenzylidene)-6-(4-methoxybenzylidene)-2,5-piperazinedione]
6.25 μM
  inhibition at 6.25 µM: 0%
12.5 μM
  inhibition at 12.5 µM: 5%
25 μM
  inhibition at 25 µM: 24%
50 μM
  inhibition at 50 µM: 46%
100 μM
  inhibition at 100 µM: 83%

## CC(C)(C)CC(=O)Oc1ccc(/C=c2\[nH]c(=O)/c(=C/c3ccccc3)[nH]c2=O)cc1 [Compound 1889, (3Z,6Z)-6-Benzylidene-3-(4-(3,3-dimethylbutanoyloxy)benzylidene)-2,5-piperazinedione]
6.25 μM
  inhibition at 6.25 µM: 0%
12.5 μM
  inhibition at 12.5 µM: 3%
25 μM
  inhibition at 25 µM: 15%
50 μM
  inhibition at 50 µM: 38%
100 μM
  inhibition at 100 µM: 49%

## CCCCCCOc1ccc(/C=c2\[nH]c(=O)/c(=C/c3ccc(OC)cc3)[nH]c2=O)cc1 [Compound 1907, (3Z,6Z)-3-(4-Hexyloxybenzylidene)-6-(4-methoxybenzylidene)-2,5-piperazinedione]
6.25 μM
  inhibition at 6.25 µM: 10%
12.5 μM
  inhibition at 12.5 µM: 23%
25 μM
  inhibition at 25 µM: 37%
50 μM
  inhibition at 50 µM: 69%
100 μM
  inhibition at 100 µM: 80%

## CN(C)CCOc1ccc(/C=c2\[nH]c(=O)/c(=C/c3ccccc3)[nH]c2=O)cc1 [Compound 1908, (3Z,6Z)-3-Benzylidene-6-(4-(2-dimethylaminoethoxy)benzylidene)-2,5-piperazinedione]
6.25 μM
  Degree of inhibition in PAI chromogenic substrate assay: 12%
12.5 μM
  Degree of inhibition in PAI chromogenic substrate assay: 29%
25 μM
  Degree of inhibition in PAI chromogenic substrate assay: 66%
50 μM
  Degree of inhibition in PAI chromogenic substrate assay: 69%
100 μM
  Degree of inhibition in PAI chromogenic substrate assay: 74%

## COc1ccc(/C=c2\[nH]c(=O)/c(=C/c3ccc(OCCN(C)C)cc3)[nH]c2=O)cc1 [Compound 1911]
6.25 μM
  inhibition at 6.25 µM: 13%
12.5 μM
  inhibition at 12.5 µM: 20%
25 μM
  inhibition at 25 µM: 15%
50 μM
  inhibition at 50 µM: 23%
100 μM
  inhibition at 100 µM: 38%

## CN(C)Cc1ccc(/C=c2\[nH]c(=O)/c(=C/c3ccccc3)[nH]c2=O)cc1 [Compound 1913, (3Z,6Z)-3-Benzylidene-6-(4-dimethylaminomethylbenzylidene)-2,5-piperazinedione]
6.25 μM
  inhibition at 6.25 µM: 15%
12.5 μM
  inhibition at 12.5 µM: 14%
25 μM
  inhibition at 25 µM: 19%
50 μM
  inhibition at 50 µM: 54%
100 μM
  inhibition at 100 µM: 71%

## CCCCOc1ccc(/C=c2\[nH]c(=O)/c(=C/c3ccc(OCCCN(C)C)cc3)[nH]c2=O)cc1 [Compound 1920, (3Z,6Z)-3-(4-Butoxybenzylidene)-6-(4-(3-dimethylaminopropoxy)benzylidene)-2,5-piperazinedione]
6.25 μM
  inhibition at 6.25 µM: 33%
12.5 μM
  inhibition at 12.5 µM: 50%
25 μM
  inhibition at 25 µM: 57%
50 μM
  inhibition at 50 µM: 66%
100 μM
  inhibition at 100 µM: 68%

## CN(C)CCOc1ccc(/C=c2\[nH]c(=O)/c(=C/c3ccccc3)[nH]c2=O)cc1 [Compound 1924, (3Z,6Z)-3-Benzylidene-6-(4-(2-dimethylaminoethoxy)benzylidene)-2,5-piperazinedione]
6.25 μM
  Degree of inhibition in PAI chromogenic substrate assay: 9%
12.5 μM
  Degree of inhibition in PAI chromogenic substrate assay: 7%
25 μM
  Degree of inhibition in PAI chromogenic substrate assay: 18%
50 μM
  Degree of inhibition in PAI chromogenic substrate assay: 38%
100 μM
  Degree of inhibition in PAI chromogenic substrate assay: 64%

## CN(C)CCOc1ccccc1/C=c1\[nH]c(=O)/c(=C/c2ccccc2)[nH]c1=O [Compound 1946, (3Z,6Z)-3-Benzylidene-6-(2-(2-dimethylaminoethoxy)benzylidene)-2,5-piperazinedione]
12.5 μM
  Degree of inhibition in PAI chromogenic substrate assay: 1%
25 μM
  Degree of inhibition in PAI chromogenic substrate assay: 1%
50 μM
  Degree of inhibition in PAI chromogenic substrate assay: 1%
100 μM
  Degree of inhibition in PAI chromogenic substrate assay: 7%

## CN(C)CCOc1cccc(/C=c2\[nH]c(=O)/c(=C/c3cccc(OCCN(C)C)c3)[nH]c2=O)c1 [Compound 1947, (3Z,6Z)-3,6-Di-(3-(2-dimethylaminoethoxy)benzylidene)-2,5-piperazinedione]
6.25 μM
  inhibition at 6.25 µM: 0%
12.5 μM
  inhibition at 12.5 µM: 1%
25 μM
  inhibition at 25 µM: 1%
50 μM
  inhibition at 50 µM: 1%
100 μM
  inhibition at 100 µM: 1%

## CN(C)CCOc1ccc(/C=c2\[nH]c(=O)/c(=C/c3ccccc3)[nH]c2=O)cc1OCCN(C)C [Compound 1949, (3Z,6Z)-3-Benzylidene-6-(3,4-di-(2-dimethylaminoethoxy)benzylidene)-2,5-piperazinedione]
6.25 μM
  Degree of inhibition in PAI chromogenic substrate assay: 1%
12.5 μM
  Degree of inhibition in PAI chromogenic substrate assay: 1%
25 μM
  Degree of inhibition in PAI chromogenic substrate assay: 1%
50 μM
  Degree of inhibition in PAI chromogenic substrate assay: 1%
100 μM
  Degree of inhibition in PAI chromogenic substrate assay: 3%

## CN(C)CCOc1ccc(/C=c2\[nH]c(=O)/c(=C/c3ccccc3)[nH]c2=O)c(Cl)c1 [Compound 1951, (3Z,6Z)-3-Benzylidene-6-(2-chloro-4-(2-dimethylaminoethoxy)benzylidene)-2,5-piperazinedione]
6.25 μM
  Degree of inhibition in PAI chromogenic substrate assay: 0%
12.5 μM
  Degree of inhibition in PAI chromogenic substrate assay: 1%
25 μM
  Degree of inhibition in PAI chromogenic substrate assay: 2%
50 μM
  Degree of inhibition in PAI chromogenic substrate assay: 23%
100 μM
  Degree of inhibition in PAI chromogenic substrate assay: 43%

## CN(C)CCOc1ccc(/C=c2\[nH]c(=O)/c(=C/c3c(Cl)cccc3Cl)[nH]c2=O)cc1 [Compound 1952]
6.25 μM
  inhibition at 6.25 µM: 0%
12.5 μM
  Degree of inhibition in PAI chromogenic substrate assay: 1%
25 μM
  Degree of inhibition in PAI chromogenic substrate assay: 19%
50 μM
  inhibition at 50 µM: 37%
100 μM
  inhibition at 100 µM: 63%

## CN(C)CCOc1ccc(/C=c2\[nH]c(=O)/c(=C/c3ccccc3)[nH]c2=O)cc1 [Compound 1954, (3Z,6Z)-6-Benzylidene-3-(4-(2-dimethylaminoethoxy)benzylidene)-2,5-piperazinedione]
6.25 μM
  Degree of inhibition in PAI chromogenic substrate assay: 37%
12.5 μM
  Degree of inhibition in PAI chromogenic substrate assay: 57%
25 μM
  Degree of inhibition in PAI chromogenic substrate assay: 67%
50 μM
  Degree of inhibition in PAI chromogenic substrate assay: 43%
100 μM
  Degree of inhibition in PAI chromogenic substrate assay: 16%

## CN(C)CCCOc1ccc(/C=c2\[nH]c(=O)/c(=C/c3ccc(OCCCN(C)C)cc3)[nH]c2=O)cc1 [Compound 1955, (3Z,6Z)-3,6-Di-(4-(3-dimethylaminopropoxy)benzylidene)-2,5-piperazinedionebis hydrogen succinate (1:2)]
6.25 μM
  Degree of inhibition in PAI chromogenic substrate assay: 0%
12.5 μM
  inhibition at 12.5 µM: 2%
25 μM
  inhibition at 25 µM: 3%
50 μM
  inhibition at 50 µM: 2%
100 μM
  inhibition at 100 µM: 9%

## CN(C)CCOc1ccc(/C=c2\[nH]c(=O)/c(=C/c3ccccc3)[nH]c2=O)cc1 [Compound 1956]
6.25 μM
  Degree of inhibition in PAI chromogenic substrate assay: 31%
12.5 μM
  Degree of inhibition in PAI chromogenic substrate assay: 65%
25 μM
  Degree of inhibition in PAI chromogenic substrate assay: 69%
50 μM
  Degree of inhibition in PAI chromogenic substrate assay: 69%
100 μM
  Degree of inhibition in PAI chromogenic substrate assay: 61%
